Results from patent publication US20150291625A1 (PFIZER INC., priority 2012, published 2015).
“And” between values parts separate entries of the source, which are not always exact repeats. Identical values can stand only once. Counter-ions that a name gives are not always drawn. Like-named read-outs stand apart in the source and are kept apart here.

What was measured:
D1 [1] = target: T1, D1 (Homo sapiens, UniProt P21728); assay: D1 cAMP HTRF assay (HEK293T/hD1#1 stable cell line); type: cell-based; design: expressed in transfected cells
T1 sequence (P21728 whole entry): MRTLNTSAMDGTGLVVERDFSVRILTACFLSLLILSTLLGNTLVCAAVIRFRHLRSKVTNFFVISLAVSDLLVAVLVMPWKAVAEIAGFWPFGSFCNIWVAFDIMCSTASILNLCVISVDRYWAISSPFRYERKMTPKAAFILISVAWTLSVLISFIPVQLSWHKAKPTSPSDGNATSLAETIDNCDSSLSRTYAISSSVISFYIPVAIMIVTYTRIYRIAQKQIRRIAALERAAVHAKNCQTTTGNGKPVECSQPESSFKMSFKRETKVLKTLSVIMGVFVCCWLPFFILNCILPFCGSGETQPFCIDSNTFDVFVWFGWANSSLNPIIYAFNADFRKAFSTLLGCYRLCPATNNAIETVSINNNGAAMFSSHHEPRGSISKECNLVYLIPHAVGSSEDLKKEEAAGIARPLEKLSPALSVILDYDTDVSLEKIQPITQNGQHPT
Excerpt: This assay was used to determine the ability of a test compound to agonize (including partially agonize) D1. A Mab anti-cAMP labeled Cryptate visualizes the tracer. […] The signal, therefore, is inversely proportional to the concentration of cAMP in the sample.
The cAMP Dynamic kit was obtained from Cisbio International (Cisbio 62AM4PEJ). Multidrop Combi (Thermo Scientific) was used for assay additions. Envision (PerkinElmer) reader was used to read HTRF.
A HEK293T/hD1#1 stable cell line was constructed internally (Pfizer Ann Arbor). […] One mL aliquots of the cells were made in Cryo-vials and frozen at −80° C. for future use in the D1 HTRF assay.
Frozen cells were quickly thawed, re-suspended in 50 mL warm media and allowed to sit for 5 min prior to centrifugation (1000 rpm) at room temperature. Media was removed and cell pellet was re-suspended in PBS/0.5 μM IBMX generating 2e5 cells/mL. […] Cells and compounds were incubated at room temperature for 30 min. Working solutions of cAMP-D2 and anti-cAMP-cryptate were prepared according to Cisbio instructions. Using Multidrop, 5 μL cAMP-D2 working solution was added to the assay plate containing the test compound and cells. Using Multidrop, 5 μL anti-cAMP-cryptate working solutions was added to assay plate containing test compound, cells and cAMP-D2. Assay plate was incubated for 1 hour at room temperature. Assay plate was read on Envision plate reader using Cisbio recommended settings. A cAMP standard curve was generated using cAMP stock solution provided in the Cisbio kit.
Data analysis was done using computer software. Percent effects were calculated from the compound controls. Ratio EC50 was determined using the raw ratio data from the Envision reader. The cAMP standard curve was used in an analysis program to determine cAMP concentrations from raw ratio data. cAMP EC50 was determined using the calculated cAMP data.

D1 [2] = target: T1, D1; assay: Human D1 receptor binding assay ([3H]-SCH23390 competition)
Description: D1 binding assays were performed using over-expressing LTK human cell lines. […] These ligand and tissue concentrations were used in time course studies to determine linearity and equilibrium conditions for binding. Binding was at equilibrium with the specified amount of tissue in 30 minutes at 37° C. […] The pellet was resuspended in assay buffer (50 mM Tris (pH 7.4@ RT) containing 4 mM MgSO4 and 0.5 mM EDTA). […] After a 30 minute incubation period at 37° C., assay samples were rapidly filtered through Unifilter-96 GF/B PEI-coated filter plates and rinsed with 50 mM Tris buffer (pH 7.4 at 4° C.). […] Ki values were calculated according to the Cheng-Prusoff equation.

[3] = Human D1 Receptor Binding, Ki (nM), Geometric mean of 2-4 determinations, a: >=5 determinations, d: single determination

For Cc1ncnc(C)c1-c1ccc(Oc2nccc3occc23)c2c1OCO2 [Example 156, 4-{[7-(4,6-dimethylpyrimidin-5-yl)-1,3-benzodioxol-4-yl]oxy}furo[3,2-c]pyridine], the EC50 (D1 [1]) was > 15100 nM and the Ki (D1 [2]; [3]) was 1820 nM.

Cc1cc(Nc2nccc3occc23)ccc1-c1c(C)ncnc1C [Example 132, N-[4-(4,6-dimethylpyrimidin-5-yl)-3-methylphenyl]furo[3,2-c]pyridin-4-amine, formate salt] showed an EC50 (D1 [1]) of 2260 nM and a Ki (D1 [2]; [3]) of 39.9 nM.

For Cc1cc(Oc2nccc3occc23)ccc1-c1c(C)cnc2ncnn12 [Example 45, 7-[4-(furo[3,2-c]pyridin-4-yloxy)-2-methylphenyl]-6-methyl[1,2,4]triazolo[1,5-a]pyrimidine], the EC50 (D1 [1]) was 1140 nM and the Ki (D1 [2]; [3]) was 182 nM.

In the case of Cc1cc(Oc2nccc3occc23)ccc1-c1c(C)ncnc1N [Example 63, 5-[4-(furo[3,2-c]pyridin-4-yloxy)-2-methylphenyl]-6-methylpyrimidin-4-amine], the EC50 (D1 [1]) is reported as 1350 nM and 843 nM and the Ki (D1 [2]; [3]) is reported as 210 nM.

c1ccc2c(-c3cccc4nccn34)ccc(Oc3nccc4occc34)c2c1 [Example 30, 4-{[4-(Imidazo[1,2-a]pyridin-5-yl)naphthalen-1-yl]oxy}furo[3,2-c]pyridine, trifluoroacetate salt] was tested, and the EC50 (D1 [1]) was 2480 nM and the Ki (D1 [2]; [3]) was 220 nM.

For COc1ncnc(C)c1-c1ccc(Oc2nccc3occc23)cc1F [Example 76, 4-[3-fluoro-4-(4-methoxy-6-methylpyrimidin-5-yl)phenoxy]furo[3,2-c]pyridine], the EC50 (D1 [1]) was 903 nM and 2170 nM and the Ki (D1 [2]; [3]) was 139 nM.

For COc1cc(Oc2nccc3occc23)ccc1-c1ccc(N)nc1C [Example 191, 5-[4-(furo[3,2-c]pyridin-4-yloxy)-2-methoxyphenyl]-6-methylpyridin-2-amine, formate salt], the EC50 (D1 [1]) was 1120 nM and the Ki (D1 [2]; [3]) was 85.8 nM.

For CO[C@H]1CCN(c2ncnc(C)c2-c2ccc(Oc3nccc4occc34)cc2C)C1 [Example 202, 4-(4-{4-[(3S)-3-methoxypyrrolidin-1-yl]-6-methylpyrimidin-5-yl}-3-methylphenoxy)furo[3,2-c]pyridine, trifluoroacetate salt], the EC50 (D1 [1]) was 1290 nM and the Ki (D1 [2]; [3]) was 114 nM.

COc1cc(Oc2nccc3occc23)ccc1-c1cccc2nccn12 [Example 34, 4-[4-(imidazo[1,2-a]pyridin-5-yl)-3-methoxyphenoxy]furo[3,2-c]pyridine] was tested, and the EC50 (D1 [1]) was 182 nM and the Ki (D1 [2]; [3]) was 20 nM.

In the case of Cc1ncnc(C)c1-c1cc(F)c(Oc2nccc3occc23)c(F)c1 [Example 128, 4-[4-(4,6-dimethylpyrimidin-5-yl)-2,6-difluorophenoxy]furo[3,2-c]pyridine], the EC50 (D1 [1]) is reported as 5480 nM and the Ki (D1 [2]; [3]) is reported as 379 nM.

For COc1cc(Oc2nccc3occc23)ccc1-c1c(C)ccnc1C#N [Example 51, 3-[4-(furo[3,2-c]pyridin-4-yloxy)-2-methoxyphenyl]-4-methylpyridine-2-carbonitrile, trifluoroacetate salt], the EC50 (D1 [1]) was 799 nM and 1220 nM and the Ki (D1 [2]; [3]) was 61.7 nM.

For Cc1cc(Oc2nccc3occc23)ccc1-c1c(C)ncnc1N1Cc2cn[nH]c2C1 [Example 96, 4-{4-[4-(4,6-dihydropyrrolo[3,4-c]pyrazol-5(1H)-yl)-6-methylpyrimidin-5-yl]-3-methylphenoxy}furo[3,2-c]pyridine, trifluoroacetate salt], the EC50 (D1 [1]) was 306 nM and the Ki (D1 [2]; [3]) was 24.5 nM.

For CN(Cc1ccccn1)Cc1cc(Oc2nccc3occc23)ccc1-c1cccc2nccn12 [Example 50, 1-[5-(furo[3,2-c]pyridin-4-yloxy)-2-(imidazo[1,2-a]pyridin-5-yl)phenyl]-N-methyl-N-(pyridin-2-ylmethyl)methanamine, trifluoroacetate salt], the EC50 (D1 [1]) was 1130 nM and the Ki (D1 [2]; [3]) was 55.1 nM.

For Cc1cc(Oc2nccc3occc23)ccc1-c1cncc2nccn12 [Example 36, 5-[4-(furo[3,2-c]pyridin-4-yloxy)-2-methylphenyl]imidazo[1,2-a]pyrazine], the EC50 (D1 [1]) was 378 nM and 412 nM and the Ki (D1 [2]; [3]) was 120 nM.

With Cc1cc(Oc2nccc3occc23)ccc1-c1c(C)ncnc1C#N (single isomer, unassigned) [Example 82, (+)-5-[4-(furo[3,2-c]pyridin-4-yloxy)-2-methylphenyl]-6-methylpyrimidine-4-carbonitrile] the EC50 (D1 [1]) was 113 nM and 781 nM and the Ki (D1 [2]; [3]) was 21.3 nM.

Work on Cc1cc(Oc2nccc3occc23)ccc1-c1c(C)ccc2nccn12 [Example 35, 4-[3-methyl-4-(6-methylimidazo[1,2-a]pyridin-5-yl)phenoxy]furo[3,2-c]pyridine] yielded an EC50 (D1 [1]) of 63.6 nM and a Ki (D1 [2]; read-out: Human D1 Receptor Binding, Ki (nM), Geometric mean of 2-4 determinations, a: >=5 determinations, d: single determination) of 6.86 nM.

For Cc1cc(Oc2nccc3occc23)ccc1-c1c(C)ncnc1N1CCN(C)C(=O)C1 [Example 198, 4-{5-[4-(furo[3,2-c]pyridin-4-yloxy)-2-methylphenyl]-6-methylpyrimidin-4-yl}-1-methylpiperazin-2-one, formate salt], the EC50 (D1 [1]) was 1140 nM and the Ki (D1 [2]; [3]) was 97 nM.

In the case of Clc1cc(Oc2nccc3occc23)ccc1-c1cncc2nccn12 [Example 170, 5-[2-chloro-4-(furo[3,2-c]pyridin-4-yloxy)phenyl]imidazo[1,2-a]pyrazine], the EC50 (D1 [1]) is reported as 657 nM and the Ki (D1 [2]; [3]) is reported as 30 nM.

Cc1ncnc(C)c1-c1ccc(Oc2nccc3occc23)c(F)c1C [Example 131, 4-[4-(4,6-dimethylpyrimidin-5-yl)-2-fluoro-3-methylphenoxy]furo[3,2-c]pyridine] showed an EC50 (D1 [1]) of 1550 nM and a Ki (D1 [2]; [3]) of 135 nM.

Cc1ncnc(C)c1-c1ccc(Oc2nccc3occc23)c(F)c1F [Example 141, 4-[4-(4,6-dimethylpyrimidin-5-yl)-2,3-difluorophenoxy]furo[3,2-c]pyridine] showed an EC50 (D1 [1]) of 298 nM and a Ki (D1 [2]; [3]) of 69.9 nM.

FC(F)(F)c1cc(Oc2nccc3occc23)ccc1-c1cccc2nccn12 [Example 54, 4-[4-(imidazo[1,2-a]pyridin-5-yl)-3-(trifluoromethyl)phenoxy]furo[3,2-c]pyridine] showed an EC50 (D1 [1]) of 243 nM and a Ki (D1 [2]; [3]) of 10.2 nM.

For Cc1cc(N(C)c2nccc3occc23)ccc1-c1cccc2nccn12 [Example 55, N-[4-(imidazo[1,2-a]pyridin-5-yl)-3-methylphenyl]-N-methylfuro[3,2-c]pyridin-4-amine], the EC50 (D1 [1]) was > 29900 nM and the Ki (D1 [2]; [3]) was 244 nM.

Cc1ncnc(C)c1-c1ccc(Oc2nccc3occc23)c2[nH]ccc12 [Example 23, 4-{[4-(4,6-Dimethylpyrimidin-5-yl)-1H-indol-7-yl]oxy}furo[3,2-c]pyridine] showed an EC50 (D1 [1]) of 848 nM and a Ki (D1 [2]; [3]) of 30.6 nM.

For Cc1cnnc(C)c1-c1ccc(Oc2nccc3occc23)cc1F [Example 140, 4-[4-(3,5-dimethylpyridazin-4-yl)-3-fluorophenoxy]furo[3,2-c]pyridine], the EC50 (D1 [1]) was 292 nM and the Ki (D1 [2]; [3]) was 48 nM.

Molecule OCCOc1cc(Oc2nccc3occc23)ccc1-c1cccc2nccn12 [Example 42, 2-[5-(furo[3,2-c]pyridin-4-yloxy)-2-(imidazo[1,2-a]pyridin-5-yl)phenoxy]ethanol, trifluoroacetate salt] has an EC50 (D1 [1]) of 406 nM and a Ki (D1 [2]; [3]) of 118 nM.

With CCc1noc(COc2cc(Oc3nccc4occc34)ccc2-c2cccnc2C)n1 [Example 78, 4-{3-[(3-ethyl-1,2,4-oxadiazol-5-yl)methoxy]-4-(2-methylpyridin-3-yl)phenoxy}furo[3,2-c]pyridine] the EC50 (D1 [1]) was 885 nM and 1230 nM and the Ki (D1 [2]; [3]) was 48.3 nM.

Molecule CCc1noc(COc2cc(Oc3nccc4occc34)ccc2-c2nccnc2C)n1 [Example 199, 4-{3-[(3-ethyl-1,2,4-oxadiazol-5-yl)methoxy]-4-(3-methylpyrazin-2-yl)phenoxy}furo[3,2-c]pyridine, formate salt] has an EC50 (D1 [1]) of 782 nM and a Ki (D1 [2]; [3]) of 104 nM.

In the case of COC(=O)COc1cc(Oc2nccc3occc23)ccc1-c1cccc2nccn12 [Example 44, methyl [5-(furo[3,2-c]pyridin-4-yloxy)-2-(imidazo[1,2-a]pyridin-5-yl)phenoxy]acetate, trifluoroacetate salt], the EC50 (D1 [1]) is reported as 651 nM and the Ki (D1 [2]; [3]) is reported as 129 nM.

In the case of Cc1ncnc(C)c1-c1ccc(Oc2nccc3occc23)cc1F [Example 69, 4-[4-(4,6-dimethylpyrimidin-5-yl)-3-fluorophenoxy]furo[3,2-c]pyridine], the EC50 (D1 [1]) is reported as 201 nM and 203 nM and the Ki (D1 [2]; [3]) is reported as 77.7 nM.

Cc1cnn(C2CC2)c1-c1ccc(Oc2nccc3occc23)cc1 [Example 32, 4-[4-(1-cyclopropyl-4-methyl-1H-pyrazol-5-yl)phenoxy]furo[3,2-c]pyridine, trifluoroacetate salt] was tested, and the EC50 (D1 [1]) was 2240 nM and the Ki (D1 [2]; [3]) was 281 nM.

Molecule Cc1n[nH]c(=O)c(C)c1-c1ccc(Oc2nccc3occ(C#N)c23)cc1 [Example 212, 4-[4-(3,5-dimethyl-6-oxo-1,6-dihydropyridazin-4-yl)phenoxy]furo[3,2-c]pyridine-3-carbonitrile] has an EC50 (D1 [1]) of 119 nM and a Ki (D1 [2]; [3]) of 18.7 nM.

For Cc1cc(Oc2nccc3occc23)ccc1-c1c(C)ccnc1C#N [Example 176, 3-[4-(furo[3,2-c]pyridin-4-yloxy)-2-methylphenyl]-4-methylpyridine-2-carbonitrile], the EC50 (D1 [1]) was 780 nM and the Ki (D1 [2]; [3]) was 44.2 nM.
